According to US20230301300A1, “HERBICIDAL COMPOSITIONS” (SYNGENTA CROP PROTECTION AG, priority 2020, published 2023):

Columns and labels:
Assay in all cases: B2 Post-Emergence Efficacy - Test 2
Assay type in all cases: in vivo
[1] = system: Panicum miliaceum (PANMI); conditions: 15 days after application, 0=no damage, 100=total kill
Summary of the method: (§1)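 Glasshouse post-emergence test: plants sown in standard soil, grown 12 days (24/18 °C or 20/16 °C day/night; 16 h light; 65% humidity), sprayed once with an aqueous IF50-based formulation including 0.2% v/v Genapol X080. Visual injury, 0–100, recorded 15 days post-application.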

Sida spinosa (SIDSP) = conditions: 15 days after application, 0-100 scale
Summary of the method: as §1

Zea mays (ZEAMX) = conditions: 15 days after application; for Herbicidal activity ZEAMX: 0-100 scale; for Herbicidal activity on a 0-100 scale, ZEAMX: 0=no damage, 100=total kill
Summary of the method: as §1

Glycine max (GLXMA) = conditions: 15 days after application; for Herbicidal activity GLXMA: 0-100 scale; for Herbicidal activity on a 0-100 scale, GLXMA: 0=no damage, 100=total kill
Summary of the method: as §1

Galium aparine (GALAP) = conditions: 15 days after application, 0-100 scale
Summary of the method: as §1

Sinapis arvensis (SINAR) = conditions: 15 days after application, 0-100 scale
Summary of the method: as §1

Lolium perenne (LOLPE) = conditions: 15 days after application, 0-100 scale
Summary of the method: as §1

Sorghum bicolour (SORVU) = conditions: 15 days after application, 0=no damage, 100=total kill
Summary of the method: as §1

[2] = system: Euphorbia hetrophylla (EPHHL); conditions: 15 days after application, 0-100 scale
Summary of the method: as §1

Poa annua (POAAN) = conditions: 15 days after application, 0-100 scale
Summary of the method: as §1

Eleisine indica (ELEIN) = conditions: 15 days after application, 0=no damage, 100=total kill
Summary of the method: as §1

Avena fatua (AVEFA) = conditions: 15 days after application, 0-100 scale
Summary of the method: as §1

Bromus tectorum (BROTE) = conditions: 15 days after application, 0-100 scale
Summary of the method: as §1

Brassica napus (BRSNN) = conditions: 15 days after application, 0-100 scale
Summary of the method: as §1

[3] = system: Ipomoea hederacea (IPOHE); conditions: 15 days after application, 0-100 scale
Summary of the method: as §1

[4] = system: Xanthium strumarium (XANST); conditions: 15 days after application, 0-100 scale
Summary of the method: as §1

Beta vulgaris (BEAVA) = conditions: 15 days after application, 0-100 scale
Summary of the method: as §1

SMILES: Cc1nn(C)c(=O)c(-c2c(F)ccc(Cl)c2CCc2ccc(F)cc2)c1OC(=O)C(C)C [Compound 1.125, [5-[3-chloro-6-fluoro-2-[2-(4-fluorophenyl)ethyl]phenyl]-1,3-dimethyl-6-oxo-pyridazin-4-yl] 2-methylpropanoate]
- Herbicidal activity on a 0-100 scale, PANMI ([1]; 15 g/Ha): 20
- Herbicidal activity on a 0-100 scale, PANMI ([1]; 30 g/Ha): 30
- Herbicidal activity on a 0-100 scale, PANMI ([1]; 60 g/Ha): 50
- Herbicidal activity on a 0-100 scale, PANMI ([1]; 125 g/Ha): 50
- Herbicidal activity on a 0-100 scale, PANMI ([1]; 250 g/Ha): 70
- Herbicidal activity on a 0-100 scale, PANMI ([1]; 500 g/Ha): 80
- Herbicidal activity SIDSP (Sida spinosa (SIDSP); 60 g/Ha): 80
- Herbicidal activity SIDSP (Sida spinosa (SIDSP); 125 g/Ha): 90
- Herbicidal activity SIDSP (Sida spinosa (SIDSP); 250 g/Ha): 90
- Herbicidal activity SIDSP (Sida spinosa (SIDSP); 500 g/Ha): 100
- Herbicidal activity ZEAMX (Zea mays (ZEAMX); 15 g/Ha): 0
- Herbicidal activity on a 0-100 scale, ZEAMX (Zea mays (ZEAMX); 15 g/Ha): 0
- Herbicidal activity ZEAMX (Zea mays (ZEAMX); 30 g/Ha): 20
- Herbicidal activity on a 0-100 scale, ZEAMX (Zea mays (ZEAMX); 30 g/Ha): 20
- Herbicidal activity ZEAMX (Zea mays (ZEAMX); 60 g/Ha): 30
- Herbicidal activity on a 0-100 scale, ZEAMX (Zea mays (ZEAMX); 60 g/Ha): 30
- Herbicidal activity ZEAMX (Zea mays (ZEAMX); 125 g/Ha): 20
- Herbicidal activity on a 0-100 scale, ZEAMX (Zea mays (ZEAMX); 125 g/Ha): 20
- Herbicidal activity ZEAMX (Zea mays (ZEAMX); 250 g/Ha): 40
- Herbicidal activity on a 0-100 scale, ZEAMX (Zea mays (ZEAMX); 250 g/Ha): 40
- Herbicidal activity ZEAMX (Zea mays (ZEAMX); 500 g/Ha): 70
- Herbicidal activity on a 0-100 scale, ZEAMX (Zea mays (ZEAMX); 500 g/Ha): 70
- Herbicidal activity GLXMA (Glycine max (GLXMA); 15 g/Ha): 40
- Herbicidal activity on a 0-100 scale, GLXMA (Glycine max (GLXMA); 15 g/Ha): 40
- Herbicidal activity GLXMA (Glycine max (GLXMA); 30 g/Ha): 70
- Herbicidal activity on a 0-100 scale, GLXMA (Glycine max (GLXMA); 30 g/Ha): 70
- Herbicidal activity GLXMA (Glycine max (GLXMA); 60 g/Ha): 70
- Herbicidal activity on a 0-100 scale, GLXMA (Glycine max (GLXMA); 60 g/Ha): 70
- Herbicidal activity GLXMA (Glycine max (GLXMA); 250 g/Ha): 90
- Herbicidal activity on a 0-100 scale, GLXMA (Glycine max (GLXMA); 250 g/Ha): 90
- Herbicidal activity GLXMA (Glycine max (GLXMA); 500 g/Ha): 90
- Herbicidal activity on a 0-100 scale, GLXMA (Glycine max (GLXMA); 500 g/Ha): 90
- Herbicidal activity GALAP (Galium aparine (GALAP); 30 g/Ha): 20
- Herbicidal activity GALAP (Galium aparine (GALAP); 60 g/Ha): 20
- Herbicidal activity GALAP (Galium aparine (GALAP); 125 g/Ha): 30
- Herbicidal activity GALAP (Galium aparine (GALAP); 250 g/Ha): 40
- Herbicidal activity GALAP (Galium aparine (GALAP); 500 g/Ha): 70
- Herbicidal activity SINAR (Sinapis arvensis (SINAR); 15 g/Ha): 60
- Herbicidal activity SINAR (Sinapis arvensis (SINAR); 30 g/Ha): 60
- Herbicidal activity SINAR (Sinapis arvensis (SINAR); 60 g/Ha): 80
- Herbicidal activity SINAR (Sinapis arvensis (SINAR); 125 g/Ha): 90
- Herbicidal activity SINAR (Sinapis arvensis (SINAR); 250 g/Ha): 90
- Herbicidal activity SINAR (Sinapis arvensis (SINAR); 500 g/Ha): 90
- Herbicidal activity LOLPE (Lolium perenne (LOLPE); 15 g/Ha): 40
- Herbicidal activity LOLPE (Lolium perenne (LOLPE); 30 g/Ha): 50
- Herbicidal activity LOLPE (Lolium perenne (LOLPE); 60 g/Ha): 60
- Herbicidal activity LOLPE (Lolium perenne (LOLPE); 125 g/Ha): 70
- Herbicidal activity LOLPE (Lolium perenne (LOLPE); 250 g/Ha): 80
- Herbicidal activity LOLPE (Lolium perenne (LOLPE); 500 g/Ha): 90
- Herbicidal activity on a 0-100 scale, SORVU (Sorghum bicolour (SORVU); 15 g/Ha): 0
- Herbicidal activity on a 0-100 scale, SORVU (Sorghum bicolour (SORVU); 30 g/Ha): 50
- Herbicidal activity on a 0-100 scale, SORVU (Sorghum bicolour (SORVU); 60 g/Ha): 50
- Herbicidal activity on a 0-100 scale, SORVU (Sorghum bicolour (SORVU); 125 g/Ha): 70
- Herbicidal activity on a 0-100 scale, SORVU (Sorghum bicolour (SORVU); 250 g/Ha): 80
- Herbicidal activity on a 0-100 scale, SORVU (Sorghum bicolour (SORVU); 500 g/Ha): 90
- Herbicidal activity EPHHL ([2]; 15 g/Ha): 90
- Herbicidal activity EPHHL ([2]; 30 g/Ha): 90
- Herbicidal activity EPHHL ([2]; 60 g/Ha): 100
- Herbicidal activity EPHHL ([2]; 125 g/Ha): 100
- Herbicidal activity EPHHL ([2]; 250 g/Ha): 100
- Herbicidal activity EPHHL ([2]; 500 g/Ha): 100
- Herbicidal activity POAAN (Poa annua (POAAN); 15 g/Ha): 0
- Herbicidal activity POAAN (Poa annua (POAAN); 30 g/Ha): 10
- Herbicidal activity POAAN (Poa annua (POAAN); 60 g/Ha): 20
- Herbicidal activity POAAN (Poa annua (POAAN); 125 g/Ha): 60
- Herbicidal activity POAAN (Poa annua (POAAN); 250 g/Ha): 70
- Herbicidal activity POAAN (Poa annua (POAAN); 500 g/Ha): 60
- Herbicidal activity on a 0-100 scale, ELEIN (Eleisine indica (ELEIN); 15 g/Ha): 40
- Herbicidal activity on a 0-100 scale, ELEIN (Eleisine indica (ELEIN); 30 g/Ha): 40
- Herbicidal activity on a 0-100 scale, ELEIN (Eleisine indica (ELEIN); 60 g/Ha): 70
- Herbicidal activity on a 0-100 scale, ELEIN (Eleisine indica (ELEIN); 125 g/Ha): 70
- Herbicidal activity on a 0-100 scale, ELEIN (Eleisine indica (ELEIN); 250 g/Ha): 80
- Herbicidal activity on a 0-100 scale, ELEIN (Eleisine indica (ELEIN); 500 g/Ha): 80
- Herbicidal activity AVEFA (Avena fatua (AVEFA); 15 g/Ha): 30
- Herbicidal activity AVEFA (Avena fatua (AVEFA); 30 g/Ha): 40
- Herbicidal activity AVEFA (Avena fatua (AVEFA); 60 g/Ha): 60
- Herbicidal activity AVEFA (Avena fatua (AVEFA); 125 g/Ha): 70
- Herbicidal activity AVEFA (Avena fatua (AVEFA); 250 g/Ha): 70
- Herbicidal activity AVEFA (Avena fatua (AVEFA); 500 g/Ha): 80
- Herbicidal activity BROTE (Bromus tectorum (BROTE); 15 g/Ha): 0
- Herbicidal activity BROTE (Bromus tectorum (BROTE); 30 g/Ha): 0
- Herbicidal activity BROTE (Bromus tectorum (BROTE); 60 g/Ha): 0
- Herbicidal activity BROTE (Bromus tectorum (BROTE); 125 g/Ha): 0
- Herbicidal activity BROTE (Bromus tectorum (BROTE); 250 g/Ha): 10
- Herbicidal activity BROTE (Bromus tectorum (BROTE); 500 g/Ha): 10
- Herbicidal activity BRSNN (Brassica napus (BRSNN); 15 g/Ha): 80
- Herbicidal activity BRSNN (Brassica napus (BRSNN); 30 g/Ha): 80
- Herbicidal activity BRSNN (Brassica napus (BRSNN); 60 g/Ha): 80
- Herbicidal activity BRSNN (Brassica napus (BRSNN); 125 g/Ha): 90
- Herbicidal activity BRSNN (Brassica napus (BRSNN); 250 g/Ha): 90
- Herbicidal activity BRSNN (Brassica napus (BRSNN); 500 g/Ha): 90
- Herbicidal activity IPOHE ([3]; 15 g/Ha): 90
- Herbicidal activity IPOHE ([3]; 30 g/Ha): 100
- Herbicidal activity IPOHE ([3]; 60 g/Ha): 100
- Herbicidal activity IPOHE ([3]; 125 g/Ha): 100
- Herbicidal activity IPOHE ([3]; 250 g/Ha): 100
- Herbicidal activity IPOHE ([3]; 500 g/Ha): 100
- Herbicidal activity XANST ([4]; 30 g/Ha): 90
- Herbicidal activity XANST ([4]; 60 g/Ha): 90
- Herbicidal activity XANST ([4]; 125 g/Ha): 90
- Herbicidal activity XANST ([4]; 250 g/Ha): 90
- Herbicidal activity XANST ([4]; 500 g/Ha): 100
- Herbicidal activity BEAVA (Beta vulgaris (BEAVA); 15 g/Ha): 70
- Herbicidal activity BEAVA (Beta vulgaris (BEAVA); 30 g/Ha): 60
- Herbicidal activity BEAVA (Beta vulgaris (BEAVA); 60 g/Ha): 60
- Herbicidal activity BEAVA (Beta vulgaris (BEAVA); 125 g/Ha): 70
- Herbicidal activity BEAVA (Beta vulgaris (BEAVA); 250 g/Ha): 70
- Herbicidal activity BEAVA (Beta vulgaris (BEAVA); 500 g/Ha): 70
